Test results as given in patent publication US20230067926A1, “SYSTEMS AND METHODS FOR MONITORING PLATELET ACTIVATION” (The Regents of the University of Michigan, priority 2021, published 2023).

Tests used:
[1] = tested on: collagen and epinephrine stimulated human platelets; assay: cells; settings: Platelet, read-out: IC50 of inhibition of collagen-stimulated platelet activation
Procedure: Fluorescence-activated Cell Sorting Analysis. […] Collagen (40 μg/ml) was then added (4 μl) and incubated for 2 min at room temperature in all tubes. Platelet activation was measured by using 20 μl of the anti-9F9 antibody-FITC and 10 μl of the constitutive platelet marker, anti-CD61-PE (Phycierythrin). As a control for the anti-9F9 antibody, 10 μl of the isotype control, anti-mouse IgG1-FITC, was used with 10 μl of anti-CD61-PE in a separate tube. The antibodies were incubated at room temperature in the dark for 15 minutes. After the incubation, 700 μl of 1% formalin/dPBS was added to each tube and stored at 4° C. for up to 24 hrs post fixing until ready to run the fluorescence-activated cell sorting (FACS) analysis on a FACSCalibur flow cytometer (Beckton Dickenson San Jose, Calif.). CellQuest software (Beckton Dickenson San Jose, Calif.) was employed for the data analysis.
Cell populations were identified for data collection by their log forward scatter (FSC) and log side scatter (SSC) light profiles. […] Mean fluorescence intensity (MFI) of the anti-9F9 immunostaining was quantitated by a FITC (FL1) versus PE (FL2) log plot analysis. […] The adjusted WI was expressed as the geometric mean channel fluorescence minus the appropriate isotype control. The platelet reactivity index (PRI) was calculated by the following equation: […]

[2] = tested on: activated platelets in whole blood; assay: PDA liposome-9F9 microarray detection of activated platelets in whole blood; format: cell-based, human
Procedure: To fabricate the PDA liposome Microarray, the liposomes were covalently immobilized on amine-modified glass slides through the amine-epoxy chemistry. 0.5 mM PDA-epoxy liposome solution was spotted on amine-coated glass slides with a manual microarrayer (VP 475, V&P scientific, INC) and was incubated at 5° C. for 24 hrs to prevent fast drying of the spotted solution. After removing the unbound liposomes by rinsing with 5 mM of pH 8 HEPES buffer, the PDA liposome-spotted slides were incubated with 0.06 mg/ml of 9F9 antibody in 5 mM of pH 8 HEPES buffer for 1 hr. After removing the unbound antibodies by rinsing with 5 mM of pH 8 HEPES buffer. […]
Detection of Activated Platelet with PDA Liposome Microarray. […] After 20 mins of incubation, fluorescence microscope images were obtained on Olympus BX 71 microscope equipped with a mercury lamp and a cut-off filter of 540 nm excitation and 600 nm emission. For fluorescence signal intensity measurement, the fabricated PDA liposome-9F9 microarray was placed on top of a 96-well plate and the combined substrates were inserted into a plate reader. Fluorescence emission intensities at 634 nm of total 120 microarray spots from three different devices were individually measured by using the excitation wavelength of 548 nm. […]

| IC50 [1] [pM] | Compound | limit of detection of Tirofiban in the sample (fluorescence signal decrease) ([2]; whole blood with collagen, 20 mins incubation, PDA microarray fluorescence (FIG. 3)) [µM] | red fluorescence intensity with added collagen relative to device without it ([2]; whole blood samples with and without 40 mg/ml of collagen, 20-min incubation (FIG. 2)) [times] |
| --- | --- | --- | --- |
| ~1.5 | CCCCS(=O)(=O)N[C@@H](Cc1ccc(OCCCCC2CCNCC2)cc1)C(=O)O [Tirofiban] | 0.16 | – |
| – | collagen | – | 2.8 |
